From PMC9303367, “Synthesis of Aminoethyl‐Substituted Piperidine Derivatives as σ1 Receptor Ligands with Antiproliferative Properties” (Chemmedchem, 2022)
Read-outs that look alike come from different tables or passages of the source.

Tests used:
[1] = system: human non-small cell lung cancer cell line A427; test: A427 tumor cell proliferation (confluence) assay, IncuCyte S3 live cell imaging
Method: In particular the confluence and IC 50 values were determined.
Live Cell imaging using the IncuCyte® S3 Live Cell Analysis System
The measurement of the cell confluence and the determination of the IC50 values were
performed with the IncuCyte® S3 Live Cell Analysis System (Essen BioScience, Ltd.,
Royston, Hertfordshire, UK)
5.4. Preparation of 96-well plates
For the preparation of the 96-well plates for the Live Cell Imager, A427 cells from the flask
were detached and centrifuged. The pellet was resuspended in 20 mL of the medium
using the vortexer. 1 mL was used to determine the number of cells and the volume
required for 8,000-12,000 cells was calculated. This volume was then added to each well
Switzerland) and the well was filled up to a total volume of 150 µL with medium.
At a confluence of 30-40 % the test compounds were added. Dilutions of concentrations
of 200, 100, 40, 20, 10 and 4 µM were prepared in medium with 2 % DMSO. 50 µL of
each dilution were added to the wells, resulting in a final assay concentration of 50, 25,
10, 5, 2.5 and 1 µM, respectively. Each concentration was measured in triplicates on each
plate and on three different days.
5.5. Measurement of cell confluence
The cell confluence was measured using the IncuCyte® S3. For the scanning with the
at a 10-fold magnification. Four pictures were taken from each well every 2 h until the
growth curve of the cells reached a plateau (approx. 5 d). The mask for the analysis of
adjustment size of -1 pixel and an area filter of minimum 200 µm2. After the analysis, a
graph showing the development of the confluence over time was produced.
5.6. Competitive confluence assay
The plates were prepared as described above with the exception that the cells were grown
in 100 µL instead of 150 µL of medium. After the cell confluence reached 30-40 %, the
(final concentration: 10 µM).

σ1 receptor [2] = target: T1, σ1 receptor (Cavia porcellus, UniProt Q60492); test: σ1 receptor radioligand binding assay ([3H]-(+)-pentazocine, guinea pig brain homogenate); details: for σ1 : σ2 selectivity: Ki(σ2)/Ki(σ1); for Ki: guinea pig brain, [3H]-(+)-pentazocine, piperidines tested as cis/trans mixtures
T1 construct: The thawed membrane preparation of guinea pig brain cortex; tissue Harlan-Winkelmann, Borchen, Germany; host or cells: guinea pig brain (cortex) membrane homogenate

[3] = logD7.4 by micro shake flask method (n-octanol / MOPS buffer pH 7.4, MS); assay type: physicochemical; details: read-out: logD7.4 (exp., n=3)
Method: However, the penalty for increased hydrolytic stability and σ1 receptor affinity of tetrahydropyrans 2 and cyclohexanes 3 is an increased molecular lipophilicity. In Figure 1 the calculated clogP values of the σ1 ligands 1–3 and one designed piperidine 4 a are summarized. In order to confirm the predicted clogP values, the logD7.4 values of the σ1 ligands 1–4 a were also determined experimentally using the micro shake flask method.[39, 40]
In order to argue with reliable lipophilicity values, the logD7.4 values of key compounds were determined experimentally following our micro‐shake‐flask protocol.[39, 40] According to this method, each compound of interest was distributed between an n‐octanol layer and an aqueous MOPS buffer pH 7.4. Subsequently, the amount of compound in the buffer layer was determined by mass spectrometry.

σ1 receptor [4] = target: T1, σ1 receptor; details: cited from earlier work
σ2 receptor [5] = target: T2, σ2 receptor (Rattus norvegicus, UniProt Q5U3Y7); details: lead compounds 1–3; read-out: σ2 affinity K i±SEM; cited from earlier work
T2 construct: The thawed rat liver membrane preparation; tissue Harlan-Winkelmann, Borchen, Germany; host or cells: rat liver membrane preparation
T2 sequence (Q5U3Y7 1-176): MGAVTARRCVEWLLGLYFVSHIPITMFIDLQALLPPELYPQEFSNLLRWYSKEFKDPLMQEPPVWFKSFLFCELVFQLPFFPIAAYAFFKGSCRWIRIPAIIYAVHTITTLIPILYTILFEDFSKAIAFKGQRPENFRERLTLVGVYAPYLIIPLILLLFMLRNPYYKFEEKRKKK

σ1 receptor [6] = system: σ1 receptor; design: method as in PMID 21444132, PMID 21598296; details: mouse capsaicin assay; cited from earlier work
σ2 receptor [7] = target: T2, σ2 receptor; test: σ2 receptor radioligand binding assay ([3H]DTG with excess (+)-pentazocine, rat liver membranes); details: for Ki: read-out: σ2 affinity K i±SEM (n=3), rat liver membranes, [3H]DTG + (+)-pentazocine; for inhibition at 1 µM: test compound concentration 1 μM
[8] = system: androgen negative human prostate cancer cells DU145; test: DU145 cell growth inhibition, sulforhodamine B staining, 72 h; assay type: cell-based; details: 72 h incubation, n=3, read-out: cytotoxicity (DU145) IC 50
Method: In the assay, DU145 tumor cells were incubated in 96‐well plates for 24 h. Different concentrations of the test compounds were added and after incubation for additional 72 h, the amount of living cells was recorded by staining with Sulforhodamine B.[62] In Table 3 the activity of the prototypical σ1 antagonists NE‐100 and S1RA is included.
6. Growth inhibition of DU145 tumor cells
DU145 cells were purchased from ATCC and maintained in adherent conditions in RPMI 1640 medium (21875-034, Gibco®) supplemented with 2 % (S)-glutamine, 10 % fetal […]
Gibco®). For the proliferation assays, DU145 cells were seeded at a density of 2 x 10^3 cells/well in 96-well tissue culture plates. 24 h later, the cells were treated with the […]
Then, the cells were fixed with 10 % (w/v) trichloroacetic acid and stained with sulforhodamine B for 30 min. The excess of the dye was removed by washing repeatedly with 1 % (v/v) acetic acid and the protein-bound dye was solubilized with Tris base solution for optical density (OD) measurement at 510 nm with a microplate reader. Cell proliferation and viability were expressed as percentages relative to those of DMSO treated cells. The data represent the results from three independent experiments. Statistical analysis was done using T-test and Anova. Figure […]
and two reference σ1 receptor antagonists.

σ1 receptor [9] = details: read-out: σ1 affinity K i±SEM, cited from earlier work
water solubility = assay type: physicochemical; details: at higher concentrations
[10] = read-out: σ1 affinity K i±SEM (n=3)
[11] = lead compounds 1–3 (enantiomers), read-out: σ1 affinity K i±SEM

T1 sequence (Q60492 whole entry): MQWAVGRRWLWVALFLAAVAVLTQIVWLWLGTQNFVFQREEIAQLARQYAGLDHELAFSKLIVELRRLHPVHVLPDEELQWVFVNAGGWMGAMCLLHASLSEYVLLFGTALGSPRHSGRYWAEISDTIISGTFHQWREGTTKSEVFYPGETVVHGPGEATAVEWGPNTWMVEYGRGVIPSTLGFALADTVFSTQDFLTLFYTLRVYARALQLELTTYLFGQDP

Question: For CC(C)=CCN1CC[C@]2(C)c3cc(O)ccc3C[C@H]1[C@H]2C [(+)‐pentazocine, reference compound], which “Inhibition of cell confluency IC50 ± SD” value ([1]; A427 cells, last time point (approx. 5 d), n = 3) is on record?
Answer: The value was “no effect”.

Question: With CN1CCC(CCNCc2ccccc2)CC1c1ccccc1 (stereo not drawn) [18a, cis‐ and trans‐N‐Benzyl‐2‐(1‐methyl‐2‐phenyl‐piperidin‐ 4‐yl)ethan‐1‐amine] as the molecule, how does the “σ1 : σ2 selectivity” value (σ1 receptor [2]) read?
Answer: Its value is 61.

Question: And the Ki (σ1 receptor [2]; [10])?
Answer: The Ki was 7.9 ± 0.2 nM.

Question: And the logD [3]?
Answer: The logD was 0.52 ± 0.01.

Question: For c1ccc(CNCCC2CCOC(c3ccccc3)O2)cc1 (stereo not drawn) [compound 1], which logD [3] is on record?
Answer: Its logD is 1.36 ± 0.02.

Question: What about the Ki (σ1 receptor [4]; 1,3-dioxane 1, read-out: σ1 affinity K i) of the same molecule?
Answer: The Ki was 19 nM.

Question: What about the Ki (σ1 receptor [4]; [11]) of the same molecule?
Answer: Its Ki is 6 ± 1 nM.

Question: And the Ki (σ2 receptor [5])?
Answer: Its Ki is 4200 nM.

Question: What about the “antiallodynic activity in vivo” value (σ1 receptor [6]) of the same molecule?
Answer: The value was “high antiallodynic activity”.

Question: With CN1CCC(CCN2CCN(c3ccccc3)CC2)CC1c1ccccc1 (stereo not drawn) [22a, cis‐ and trans‐1‐(2‐(1‐Methyl‐2‐phenyl‐ piperidin‐4‐yl)ethyl)‐4‐phenylpiperazine] as the molecule, how does the “σ1 : σ2 selectivity” value (σ1 receptor [2]) read?
Answer: The value was 59.

Question: And the Ki (σ1 receptor [2]; [10])?
Answer: Its Ki is 27 ± 11 nM.

Question: What about the Ki (σ1 receptor [2]; σ1 affinity K i±SEM (n=3)) of the same molecule?
Answer: The Ki was < 27 nM.

Question: What about the Ki (σ2 receptor [7]) of the same molecule?
Answer: Its Ki is 1600 nM.

Question: And the IC50 ([8]; Homo sapiens, DU-145)?
Answer: The IC50 was 4000 nM.

Question: For CN1CC[C@H](CCNCCCc2ccccc2)C[C@@H]1c1ccccc1 [19a, cis‐N‐(2‐(1‐Methyl‐2‐phenylpiperidin‐4‐yl)‐ethyl)‐3‐ phenylpropan‐1‐amine], which “σ1 : σ2 selectivity” value (σ1 receptor [2]) is on record?
Answer: The value was >20.

Question: And the Ki (σ1 receptor [2]; σ1 affinity K i±SEM (n=3))?
Answer: Its Ki is 50 ± 17 nM.

Question: What about the inhibition at 1 µM (σ2 receptor [7]) of the same molecule?
Answer: The inhibition at 1 µM was 0%.

Question: With CN(CCC1CCN(C)C(c2ccccc2)C1)Cc1ccccc1 (stereo not drawn) [21a, cis‐ and trans‐N‐Benzyl‐N‐methyl‐2‐(1‐methyl‐ 2‐phenylpiperidin‐4‐yl)ethan‐1‐amine] as the molecule, how does the “σ1 : σ2 selectivity” value (σ1 receptor [2]) read?
Answer: Its value is 4.

Question: What about the Ki (σ1 receptor [2]; [10]) of the same molecule?
Answer: Its Ki is 19 ± 9 nM.

Question: And the Ki (σ1 receptor [2]; σ1 affinity K i±SEM (n=3))?
Answer: The Ki was < 27 nM.

Question: And the Ki (σ2 receptor [7])?
Answer: Its Ki is 77 ± 5 nM.

Question: And the IC50 ([8]; Homo sapiens, DU-145)?
Answer: The IC50 was 5500 nM.

Question: What does the source list for CCN1CC[C@H](CCNCCCc2ccccc2)C[C@@H]1c1ccccc1 [19b, cis‐N‐(2‐(1‐Ethyl‐2‐phenylpiperidin‐4‐yl)ethyl)‐3‐phenylpropan‐1‐amine]?
Answer: Ki (σ1 receptor [2]; σ1 affinity K i±SEM (n=3)): 2400 nM; preference for the σ2 receptor over the σ1 receptor (σ2 receptor [7]): 7 fold

Question: With CCCN(CCC)CCc1ccc(OC)c(OCCc2ccccc2)c1 [NE‐100, reference compound] as the molecule, how does the IC50 [8] read?
Answer: The IC50 was > 10000 nM.

Question: What about the Ki (σ1 receptor [9]; NE-100) of the same molecule?
Answer: The Ki was 1.3 nM.

Question: With c1ccc(CNCCC2CCCC(c3ccccc3)C2)cc1 (stereo not drawn) [compound 3] as the molecule, how does the logD [3] read?
Answer: Its logD is 3.25 ± 0.02.

Question: And the Ki (σ1 receptor [4]; [11])?
Answer: Its Ki is 0.61 ± 0.1 nM.

Question: And the “σ1 : σ2 selectivity” value (σ1 receptor [4]; lead compounds 1–3)?
Answer: The value was 80.

Question: And the Ki (σ2 receptor [5])?
Answer: Its Ki is 49 ± 31 nM.

Question: For Cc1ccc(S(=O)(=O)N2CCC(CCNCCCc3ccccc3)CC2c2ccccc2)cc1 (stereo not drawn) [13b, cis‐ and trans‐N‐(3‐Phenylpropyl)‐2‐(2‐phenyl‐1‐tosylpiperidin‐4‐yl)ethan‐1‐amine], which “σ1 : σ2 selectivity” value (σ1 receptor [2]) is on record?
Answer: Its value is 2.

Question: What about the Ki (σ1 receptor [2]; σ1 affinity K i±SEM (n=3)) of the same molecule?
Answer: Its Ki is 291 ± 139 nM.

Question: With c1ccc(CNCCC2CCNC(c3ccccc3)C2)cc1 (stereo not drawn) [4a, cis‐ and trans‐N‐Benzyl‐2‐(2‐phenylpiperidin‐4‐yl)ethan‐1‐amine] as the molecule, how does the Ki (σ1 receptor [2]; [10]) read?
Answer: The Ki was 165 nM.

Question: What about the Ki (σ2 receptor [7]) of the same molecule?
Answer: Its Ki is 372 nM.

Question: What about the logD [3] of the same molecule?
Answer: Its logD is -0.79 ± 0.07.

Question: And the water solubility (water solubility)?
Answer: The water solubility was “good water solubility”.

Question: And the IC50 ([1]; Homo sapiens, A-427, 120 h, read-out: Inhibition of cell confluency IC50 ± SD, A427 cells, last time point (approx. 5 d), n = 3)?
Answer: Its IC50 is 18000 nM.

Question: What about the “functional behaviour at σ1 receptor in A427 tumor cell proliferation assay” value ([1]; effect reduced by σ1 agonist (+)-pentazocine (10 μM)) of the same molecule?
Answer: The value was “σ1 receptor antagonist”.

Question: And the IC50 ([1]; read-out: Inhibition of cell confluency IC50 ± SD, A427 cells, last time point (approx. 5 d), n = 3)?
Answer: The IC50 was 17000 nM.

Question: For c1ccc(CCCNCCC2CCNC(c3ccccc3)C2)cc1 (stereo not drawn) [4b, cis‐ and trans‐N‐(3‐Phenylpropyl)‐2‐(2‐phenyl‐piperidin‐ 4‐yl)ethan‐1‐amine], which Ki (σ1 receptor [2]; σ1 affinity K i±SEM (n=3)) is on record?
Answer: Its Ki is 849 nM.

Question: What about the inhibition at 1 µM (σ2 receptor [7]) of the same molecule?
Answer: The inhibition at 1 µM was 0%.

Question: For c1ccc(CNCCC2CCCC(c3ccccc3)O2)cc1 (stereo not drawn) [compound 2], which logD [3] is on record?
Answer: Its logD is 2.52 ± 0.05.

Question: What about the Ki (σ1 receptor [4]; [11]) of the same molecule?
Answer: The Ki was 1.6 ± 0.2 nM.

Question: And the Ki (σ2 receptor [5])?
Answer: The Ki was 378 nM.

Question: What does the source list for Cc1cc(OCCN2CCOCC2)nn1-c1ccc2ccccc2c1 [S1RA, reference compound]?
Answer: IC50 [8]: > 10000 nM; Ki (σ1 receptor [9]; S1RA): 17 ± 7 nM

Question: Which “σ1 : σ2 selectivity” value (σ1 receptor [2]) does the source give for Cc1ccc(S(=O)(=O)N2CCC(CCNCc3ccccc3)CC2c2ccccc2)cc1 (stereo not drawn) [13a, cis‐ and trans‐N‐Benzyl‐2‐(2‐phenyl‐1‐tosyl‐piperidin‐ 4‐yl)ethan‐1‐amine] here?
Answer: The value was 13.

Question: What about the Ki (σ1 receptor [2]; σ1 affinity K i±SEM (n=3)) of the same molecule?
Answer: The Ki was 57 ± 21 nM.

Question: And the melting point?
Answer: The melting point was 79 °C.

Question: For CN1CCC(CCNCC2CCCCC2)CC1c1ccccc1 (stereo not drawn) [20a, cis‐ and trans‐N‐(Cyclohexylmethyl)‐2‐(1‐methyl‐ 2‐phenylpiperidin‐4‐yl)ethan‐1‐amine], which “σ1 : σ2 selectivity” value (σ1 receptor [2]) is on record?
Answer: The value was 18.

Question: And the Ki (σ1 receptor [2]; σ1 affinity K i±SEM (n=3))?
Answer: The Ki was 16 ± 5 nM.

Question: And the IC50 ([8]; Homo sapiens, DU-145)?
Answer: The IC50 was 4900 nM.

Question: For CCN1CCC(CCNCc2ccccc2)CC1c1ccccc1 (stereo not drawn) [18b, cis‐ and trans‐N‐Benzyl‐2‐(1‐ethyl‐2‐phenyl‐piperidin‐ 4‐yl)ethan‐1‐amine], which “σ1 : σ2 selectivity” value (σ1 receptor [2]) is on record?
Answer: Its value is 1.

Question: And the Ki (σ1 receptor [2]; σ1 affinity K i±SEM (n=3))?
Answer: Its Ki is 129 ± 38 nM.
